Like-named read-outs stand apart in the source and are kept apart here.
How the values were obtained:
[1] = target: T1, SHBG (Homo sapiens, UniProt P04278); conditions: cited from earlier work; for binding affinity for SHBG: Phillips 1990, Steroids
T1 sequence (P04278 30-402): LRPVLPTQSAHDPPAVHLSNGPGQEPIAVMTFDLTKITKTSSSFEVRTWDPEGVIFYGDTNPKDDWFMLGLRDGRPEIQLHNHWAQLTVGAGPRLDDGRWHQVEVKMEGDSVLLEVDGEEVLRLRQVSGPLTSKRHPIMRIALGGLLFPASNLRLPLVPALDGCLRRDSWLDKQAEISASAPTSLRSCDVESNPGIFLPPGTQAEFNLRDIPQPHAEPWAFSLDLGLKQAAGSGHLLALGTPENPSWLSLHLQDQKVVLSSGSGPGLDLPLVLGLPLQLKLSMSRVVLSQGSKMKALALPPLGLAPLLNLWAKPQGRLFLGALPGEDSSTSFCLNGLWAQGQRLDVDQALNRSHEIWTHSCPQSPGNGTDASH

[2] = cited from earlier work; for unenhanced flux: without chemical enhancers
[3] = Second clinical trial of LNG plus EE transdermal patches (Example 2): serum/plasma LNG and EE levels; conditions: clinical data of LNG plus EE patches versus LNG-only patches
[4] = target: T1, SHBG; conditions: cited from earlier work
[5] = in vivo; cited from earlier work
[6] = human, in vivo
[7] = In vitro skin permeation of LNG from patches, Franz diffusion cells; assay type: in vitro ADME, human; conditions: comparison in words
Protocol: The objective of this study was to compare in vitro skin permeation of LNG through human cadaver skin from a patch containing both EE and LNG (Patch of column 4, Table 1) with a patch containing only LNG (patch in column 2, Table 1).
Only one (1) skin donor was used in these in vitro skin permeation experiments (split thickness dermatomed approximately at […] human cadaver skin). All in vitro skin permeation studies were conducted using the PermeGear Membrane Transport System. Each Membrane Transport System consisted of vertical, jacketed (37° C.±0.5° C.) Franz diffusion cells with magnetic stirrer, 2 chamber (donor and receiver) sets of 6 units, orifice diameter 15 mm, effective permeation surface area 1.767 cm^2. Each cell was prepared by cutting the skin samples into approximately 3 cm×3 cm squares and mounting them on the top of the receiver compartment of Franz cells. Patches to be tested were placed on the stratum corneum surface of the skin and the donor and receiver compartments of the diffusion cells were then clamped in place. The receiver compartment was then filled with approximately 12 mL of receiver medium/receptor solution (Phosphate Buffered Saline (PBS)+0.5% Oleth 20+0.008% Gentamicin, pH 7.3), tilting to make sure the receiver medium and the skin/solution interface was free of any air bubbles.
Skin flux studies were run for a period of 168 hours. […]

[8] = Victor et al., J. Clin. Endocrinol. Metab. 43: 244

C#C[C@]1(O)CC[C@H]2[C@@H]3CCC4=CC(=O)CC[C@@H]4[C@H]3CC[C@@]21CC [d-norgestrel]
binding affinity to SHBG [1, 8]: higher affinity for SHBG than EE

C#CC1(O)CC[C@H]2[C@@H]3CCC4=CC(=O)CC[C@@H]4[C@H]3CC[C@@]21CC (mixture of isomers) [dl-norgestrel]
binding affinity to SHBG [1, 8]: higher affinity for SHBG than EE

medroxyprogesterone
binding affinity to SHBG [1, 8]: do not have high binding affinity

CC(=O)[C@H]1CC[C@H]2[C@@H]3CCC4=CC(=O)CC[C@]4(C)[C@H]3CC[C@]12C [progesterone]
unenhanced flux ([2]; from cited patents): 0.14 micrograms/cm^2/hr | binding affinity to SHBG ([1]; Pollow 1989, Contraception): lesser binding affinity

C#C[C@]1(O)CC[C@H]2[C@@H]3CCC4=CCCC[C@@H]4[C@H]3CC[C@@]21C [lynestrenol]
binding affinity to SHBG [1, 8]: higher affinity for SHBG than EE

C#C[C@]1(O)CC[C@H]2[C@@H]3CCC4=CC(=O)CC[C@@H]4[C@H]3C(=C)C[C@@]21CC [3-keto desogestrel]
binding affinity for SHBG [1]: reasonably high affinities | binding affinity to SHBG ([1]; Pollow 1989, Contraception): high binding affinity

C=C1C[C@H]2[C@@H]3CCC4=CC(=O)CC[C@@H]4[C@H]3CC[C@]2(C)[C@@]1(OC(C)=O)C(C)=O [nesterone]
enhanced flux ([2]; with chemical enhancers, from cited patents): 0.01 micrograms/cm^2/hr | unenhanced flux ([2]; from cited patents): 0.005 micrograms/cm^2/hr

C#C[C@]1(O)CC[C@H]2[C@@H]3CCc4cc(O)ccc4[C@H]3CC[C@@]21C [EE, ethinyl estradiol]
increase of LNG plasma levels by addition of EE relative to addition of an equivalent amount of LNG [3]: about ten | IC50 ([4]; Hong et al., 2015, read-out: IC50 in testosterone displacement assay): 0.79 µM | IC50 ([4]; according to Hong (2015), read-out: IC50 (affinity for SHBG)): 0.8 µM | oral bioavailability [5]: 95%

C#C[C@]1(O)CC[C@H]2[C@@H]3CCC4=CC(=O)CC[C@@H]4[C@H]3CC[C@@]21C [norethisterone]
binding affinity to SHBG ([1]; Schoultz 1989): high binding affinity | binding affinity to SHBG [1, 8]: higher affinity for SHBG than EE

C#C[C@]1(O)C=C[C@H]2[C@@H]3CCC4=CC(=O)CC[C@@H]4[C@H]3CC[C@@]21CC [gestodene]
binding affinity for SHBG [1]: reasonably high affinities | binding affinity to SHBG ([1]; Pollow 1989, Contraception): high binding affinity

C#C[C@]1(O)CC[C@H]2[C@@H]3CCC4=CCCC[C@@H]4[C@H]3C(=C)C[C@@]21CC [desogestrel]
binding affinity to SHBG ([1]; Pollow 1989, Contraception): lesser binding affinity | binding affinity to SHBG ([1]; Schoultz 1989): lesser binding affinity

CC(=O)O[C@]1(C(C)=O)CC[C@H]2[C@@H]3C=C(C)C4=CC(=O)CC[C@]4(C)[C@H]3CC[C@@]21C [Megestrol acetate]
binding affinity to SHBG [1, 8]: do not have high binding affinity

C#C[C@]1(O)CC[C@H]2[C@@H]3CCC4=CC(=O)CC[C@@H]4[C@H]3CC[C@@]21CC [LNG, levonorgestrel]
mean serum concentration of LNG, value extrapolated from the data collected [6]: 1420 picograms per milliliter | permeation/release of LNG through human skin, LNG-only versus LNG plus EE patches [7]: not affected by the presence of EE

C#C[C@]1(O)CC[C@H]2[C@@H]3CCC4=C(CCC(=O)C4)[C@H]3CC[C@@]21C [norethynodrel]
binding affinity to SHBG [1, 8]: higher affinity for SHBG than EE

CC(=O)O[C@]1(C(C)=O)CC[C@H]2[C@@H]3C[C@H](C)C4=CC(=O)CC[C@]4(C)[C@H]3CC[C@@]21C [medroxyprogesterone acetate]
binding affinity to SHBG ([1]; Pollow 1989, Contraception): lesser binding affinity | binding affinity to SHBG ([1]; Schoultz 1989): lesser binding affinity

C[C@]12CC[C@@H]3c4ccc(O)cc4CC[C@H]3[C@@H]1CC[C@@H]2O [17-beta estradiol, 17-beta-estradiol]
oral bioavailability [5]: less than 10%

C#C[C@]1(OC(C)=O)CC[C@H]2[C@@H]3CCC4=CC(=O)CC[C@@H]4[C@H]3CC[C@@]21C [norethisterone acetate]
unenhanced flux ([2]; from cited patents): 0.05 micrograms/cm^2/hr

CC(=O)O[C@]1(C(C)=O)CC[C@H]2[C@@H]3C=C(Cl)C4=CC(=O)[C@@H]5C[C@@H]5[C@]4(C)[C@H]3CC[C@@]21C [cyproterone acetate]
binding affinity to SHBG ([1]; Pollow 1989, Contraception): lesser binding affinity

C#C[C@]1(OC(C)=O)CC[C@H]2[C@@H]3CCC4=CC(=O)CC[C@@H]4[C@H]3CC[C@@]21C [Norethindrone Acetate]
flux ([2]; U.S. Pat. No. 5,474,783, enhancement not stated): 0.05 micrograms/cm^2/hr

C#C[C@]1(OC(C)=O)CC[C@H]2[C@@H]3CCC4=CC(=NO)CC[C@@H]4[C@H]3CC[C@@]21CC (mixture of isomers) [norgestimate]
binding affinity for SHBG [1]: low binding affinity

C#C[C@]1(O)CC[C@H]2[C@@H]3CCC4=CC(=NO)CC[C@@H]4[C@H]3CC[C@@]21CC (mixture of isomers) [17 deacetylnorgestimate]
unenhanced flux ([2]; from cited patents): 0.1 micrograms/cm^2/hr
